From patent publication US12703706B2, “Anthelmintic compounds comprising a thienopyridine structure” (Intervet Inc., priority 2020, dated 2026)

target: human Maxi K channel (BK channel), KCNMA1 (KCa1.1) and beta1 (KCNMB1) subunits (Homo sapiens, UniProt Q12791)
Sequence (Q12791 1-1178 isoform Q12791-5): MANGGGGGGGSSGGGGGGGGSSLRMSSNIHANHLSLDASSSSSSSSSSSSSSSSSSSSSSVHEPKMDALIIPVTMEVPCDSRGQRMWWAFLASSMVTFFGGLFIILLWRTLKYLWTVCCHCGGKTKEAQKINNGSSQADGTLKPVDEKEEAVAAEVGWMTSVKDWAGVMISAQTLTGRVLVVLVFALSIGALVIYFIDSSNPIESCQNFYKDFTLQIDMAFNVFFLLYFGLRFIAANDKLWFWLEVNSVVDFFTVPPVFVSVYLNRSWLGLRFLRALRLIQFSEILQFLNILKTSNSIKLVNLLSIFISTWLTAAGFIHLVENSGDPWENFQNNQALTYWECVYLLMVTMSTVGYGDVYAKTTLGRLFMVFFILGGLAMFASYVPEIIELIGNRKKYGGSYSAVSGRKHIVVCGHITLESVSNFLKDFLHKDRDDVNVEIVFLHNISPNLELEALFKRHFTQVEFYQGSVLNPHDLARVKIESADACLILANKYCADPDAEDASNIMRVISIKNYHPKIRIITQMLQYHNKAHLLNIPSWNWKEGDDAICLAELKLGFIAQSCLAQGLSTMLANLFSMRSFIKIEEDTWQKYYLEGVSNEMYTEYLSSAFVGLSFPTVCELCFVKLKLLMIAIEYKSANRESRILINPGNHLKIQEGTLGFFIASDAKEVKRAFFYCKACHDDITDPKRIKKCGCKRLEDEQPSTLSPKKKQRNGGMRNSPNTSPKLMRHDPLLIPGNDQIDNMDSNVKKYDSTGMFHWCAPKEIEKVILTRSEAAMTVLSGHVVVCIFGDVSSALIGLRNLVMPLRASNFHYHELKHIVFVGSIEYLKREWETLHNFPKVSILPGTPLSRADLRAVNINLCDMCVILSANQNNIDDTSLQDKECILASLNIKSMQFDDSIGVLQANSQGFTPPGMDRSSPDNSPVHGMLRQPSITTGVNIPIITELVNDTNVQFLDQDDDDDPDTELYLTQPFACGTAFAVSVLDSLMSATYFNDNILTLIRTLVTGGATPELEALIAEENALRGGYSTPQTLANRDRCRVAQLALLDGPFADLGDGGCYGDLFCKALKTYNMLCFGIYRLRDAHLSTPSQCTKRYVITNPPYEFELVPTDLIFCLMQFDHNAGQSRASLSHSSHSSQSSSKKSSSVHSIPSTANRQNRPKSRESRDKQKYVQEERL
Sequence (Q16558 whole entry partner): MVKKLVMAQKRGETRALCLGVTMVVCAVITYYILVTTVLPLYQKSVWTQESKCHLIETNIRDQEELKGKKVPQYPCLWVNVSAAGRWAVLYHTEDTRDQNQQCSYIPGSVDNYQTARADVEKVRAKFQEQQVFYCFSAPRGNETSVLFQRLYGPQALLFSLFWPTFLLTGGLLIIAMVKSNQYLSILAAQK
Experimental: In Vitro Assay: Agonistic Activity at the Human Maxi K Channel (BK Channel)
A CHO K1 cell line was stably transfected with the KCNMA1 (KCa1.1, U11058) and betal (KCNMB1) subunits of the human Maxi K channel (Ponte et al, Molecular Pharmacology 2012, 81(4), 567-577).
Cells were seeded in microtiter plates (black 384-well MTP, clear bottom) in a concentration of 20,000 cells/well in 25 μl medium and cultured for 20 to 24 hours at 37° C. and 5% CO2. After incubation, 25 μl of FMP-dye Blue-Tyrode's was added to each well and incubated at room temperature for 30 min. Ten minutes after addition of 12.5 μl compound solution, the plates are transferred to the FLIPR for measurement.
For the membrane potential measurements, plates were placed in the FLIPR Penta (Molecular Devices). The baseline measurement of the fluorescence was stared for 20 sec (Exc. 510-545 nm, Emm. 565-625 nm). Potential channel opening measurement was started by addition of 25 μl KCl-Tyrode (final assay concentration of the KCl-Tyrode: 70 mM KCl, 2 mM CaCl2, 1 mM MgCl2, 0.8 mM NaH2PO4, 5 mM Glucose, 28 mM Hepes, pH 7.4, including the voltage sensitive dye). The complete measurement takes 150 s.
EC50 values were determined in triplicate utilizing compound dilution series. The data were determined at least in two independent tests. The data were proceeded by using the ActivityBase XE Runner software (IDBS) for curve fitting and calculation of the half-maximal effective concentration.

`O=C(N[C@H]1CCOc2ccccc21)c1cnc2c(-c3cc(Cl)cc(Cl)c3)csc2c1N1CCOCC1` [Compound 1] and `O=C(N[C@H]1CCc2ccccc21)c1cnc2c(-c3cc(Cl)cc(Cl)c3)csc2c1N1CCOCC1` [Compound 3] cannot be ordered by EC50: > 30 µM for the first, > 30 µM for the second.

`C[C@H](NC(=O)c1cnc2c(-c3cc(Cl)cc(Cl)c3)csc2c1N1CCOCC1)c1ccccc1` [Compound 2] and `C[C@H](NC(=O)c1cnc2c(-c3cccc(Cl)c3Cl)csc2c1N1CCOCC1)c1ccccc1` [Compound 5] cannot be ordered by EC50: > 30 µM for the first, > 30 µM for the second.

`O=C(N[C@H]1CCOc2ccccc21)c1cnc2c(-c3cccc(Cl)c3Cl)csc2c1N1CCOCC1` [Compound 4, (S)—N-(chroman-4-yl)-3-(2,3-dichlorophenyl)-7-morpholinothieno[3,2-b]pyridine-6-carboxamide] and `O=C(N[C@H]1CCc2ccccc21)c1cnc2c(-c3cccc(Cl)c3Cl)csc2c1N1CCOCC1` [Compound 6] fall in the same range of EC50: 5 to 10 µM for the first, 5 to 10 µM for the second.

`CN(C)c1c(C(=O)N[C@H]2CCOc3ccccc32)cnc2c(-c3cc(Cl)cc(Cl)c3)csc12` [Compound 7] and `CN(C)c1c(C(=O)N[C@H]2CCc3ccccc32)cnc2c(-c3cc(Cl)cc(Cl)c3)csc12` [Compound 9] cannot be ordered by EC50: > 30 µM for the first, > 30 µM for the second.

`C[C@H](NC(=O)c1cnc2c(-c3cc(Cl)cc(Cl)c3)csc2c1N(C)C)c1ccccc1` [Compound 8] and `C[C@H](NC(=O)c1cnc2c(-c3cccc(Cl)c3Cl)csc2c1N(C)C)c1ccccc1` [Compound 11] cannot be ordered by EC50: > 30 µM for the first, > 30 µM for the second.

`CN(C)c1c(C(=O)N[C@H]2CCc3ccccc32)cnc2c(-c3cccc(Cl)c3Cl)csc12` [Compound 12] and `CN(C)c1c(C(=O)N[C@H]2CCCc3ccccc32)cnc2c(-c3cccc(Cl)c3Cl)csc12` [Compound 21] cannot be ordered by EC50: > 30 µM for the first, > 30 µM for the second.

Compared with `O=C(N[C@H]1CCCc2ccccc21)c1cnc2c(-c3cccc(Cl)c3Cl)csc2c1N1CCOCC1` [Compound 13], `O=C(N[C@H]1CCCc2ccccc21)c1cnc2c(-c3cc(Cl)cc(Cl)c3)csc2c1N1CCOCC1` [Compound 32] is higher in EC50: 5 to 10 µM for the first, > 30 µM for the second.

`O=C(N[C@H]1CCOc2ccccc21)c1cnc2c(-c3cc(F)cc(F)c3F)csc2c1N1CCOCC1` [Compound 15] and `O=C(N[C@H]1CCc2ccccc21)c1cnc2c(-c3cc(F)cc(F)c3F)csc2c1N1CCOCC1` [Compound 16] cannot be ordered by EC50: > 30 µM for the first, > 30 µM for the second.

`CN1CCN(c2c(C(=O)N[C@H]3CCCc4ccccc43)cnc3c(-c4cc(Cl)cc(Cl)c4)csc23)CC1` [Compound 18] and `CN1CCN(c2c(C(=O)NC3CCCc4ccccc43)cnc3c(-c4cc(Cl)cc(Cl)c4)csc23)CC1` (stereo not shown) [Compound 30] cannot be ordered by EC50: > 30 µM for the first, > 30 µM for the second.

`CN1CCN(c2c(C(=O)N[C@H]3CCOc4ccccc43)cnc3c(-c4cc(Cl)cc(Cl)c4)csc23)CC1` [Compound 19] and `CN1CCN(c2c(C(=O)N[C@H]3CCc4ccccc43)cnc3c(-c4cc(Cl)cc(Cl)c4)csc23)CC1` [Compound 29] cannot be ordered by EC50: > 30 µM for the first, > 30 µM for the second.

`CN1CCN(c2c(C(=O)NC3CCOc4ccccc43)cnc3c(-c4cccc(Cl)c4Cl)csc23)CC1` (stereo not shown) [Compound 20] and `O=C(N[C@H]1CCOc2ccccc21)c1cnc2c(-c3cccc(Cl)c3Cl)csc2c1N1CC(F)(F)C1` [Compound 26] cannot be ordered by EC50: > 30 µM for the first, > 30 µM for the second.

`CN(C)c1c(C(=O)Nc2cccc3ccccc23)cnc2c(-c3cccc(Cl)c3Cl)csc12` [Compound 22] and `Cc1sc2c(N(C)C)c(C(=O)Nc3cccc4ccccc34)cnc2c1-c1cccc(Cl)c1Cl` [Compound 37] cannot be ordered by EC50: > 30 µM for the first, > 30 µM for the second.

`CN(C)c1c(C(=O)N[C@H]2CCOc3ccccc32)cnc2c(-c3cc(F)cc(F)c3F)csc12` [Compound 23] and `CN(C)c1c(C(=O)N[C@H]2CCc3ccccc32)cnc2c(-c3cc(F)cc(F)c3F)csc12` [Compound 25] cannot be ordered by EC50: > 30 µM for the first, > 30 µM for the second.

`O=C(N[C@H]1CCOc2ccccc21)c1cnc2c(-c3cccc(F)c3F)csc2c1N1CCOCC1` [Compound 24] and `Cc1cccc(-c2csc3c(N4CCOCC4)c(C(=O)N[C@H]4CCOc5ccccc54)cnc23)c1C` [Compound 44] cannot be ordered by EC50: > 30 µM for the first, > 30 µM for the second.

`O=C(NC1CCOc2ccccc21)c1cnc2c(-c3cccc(Cl)c3Cl)csc2c1N1CC(F)(F)C1` (stereo not shown) [Compound 27] and `O=C(N[C@H]1CCc2ccccc21)c1cnc2c(-c3cccc(Cl)c3Cl)csc2c1N1CC(F)(F)C1` [Compound 39] cannot be ordered by EC50: > 30 µM for the first, > 30 µM for the second.

`CN(C)c1c(C(=O)NC2CCOc3ccccc32)cnc2c(-c3cccc(Cl)c3Cl)csc12` (stereo not shown) [Compound 28] and `CN(C)c1c(C(=O)N[C@H]2CCOc3ccccc32)cnc2c(-c3cccc(F)c3F)csc12` [Compound 46] cannot be ordered by EC50: > 30 µM for the first, > 30 µM for the second.

`CN(C)c1c(C(=O)N[C@H]2CCCc3ccccc32)cnc2c(-c3cc(Cl)cc(Cl)c3)csc12` [Compound 31] and `Cc1sc2c(N(C)C)c(C(=O)N[C@H]3CCCc4ccccc43)cnc2c1-c1cc(Cl)cc(Cl)c1` [Compound 38] cannot be ordered by EC50: > 30 µM for the first, > 30 µM for the second.

`Cc1sc2c(N(C)C)c(C(=O)N[C@H]3CCc4ccccc43)cnc2c1-c1cc(Cl)cc(Cl)c1` [Compound 33] and `Cc1sc2c(N(C)C)c(C(=O)N[C@H]3CCc4ccccc43)cnc2c1-c1cccc(Cl)c1Cl` [Compound 34] cannot be ordered by EC50: > 30 µM for the first, > 30 µM for the second.

`Cc1sc2c(N(C)C)c(C(=O)N[C@H]3CCCc4ccccc43)cnc2c1-c1cccc(Cl)c1Cl` [Compound 35] and `Cc1sc2c(N3CC(F)(F)C3)c(C(=O)N[C@H]3CCCc4ccccc43)cnc2c1-c1cccc(Cl)c1Cl` [Compound 55] cannot be ordered by EC50: > 30 µM for the first, > 30 µM for the second.

`O=C(N[C@H]1CCOc2ccccc21)c1cnc2c(-c3cc(F)cc(F)c3F)csc2c1N1CC(F)(F)C1` [Compound 40] and `O=C(N[C@H]1CCc2ccccc21)c1cnc2c(-c3cc(F)cc(F)c3F)csc2c1N1CC(F)(F)C1` [Compound 41] cannot be ordered by EC50: > 30 µM for the first, > 30 µM for the second.

`O=C(N[C@H]1CCOc2ccccc21)c1cnc2c(-c3cccc(C(F)(F)F)c3)csc2c1N1CCOCC1` [Compound 42] and `COc1cccc(-c2csc3c(N4CCOCC4)c(C(=O)N[C@H]4CCOc5ccccc54)cnc23)c1` [Compound 43] cannot be ordered by EC50: > 30 µM for the first, > 30 µM for the second.

`O=C(N[C@H]1CCOc2ccccc21)c1cnc2c(-c3cc(F)cc(F)c3)csc2c1N1CCOCC1` [Compound 45] and `CN(C)c1c(C(=O)N[C@H]2CCOc3ccccc32)cnc2c(-c3cc(F)cc(F)c3)csc12` [Compound 51] cannot be ordered by EC50: > 30 µM for the first, > 30 µM for the second.

`CN(C)c1c(C(=O)N[C@H]2CCOc3ccccc32)cnc2c(-c3cccc(C(F)(F)F)c3)csc12` [Compound 47] and `COc1cccc(-c2csc3c(N(C)C)c(C(=O)N[C@H]4CCOc5ccccc54)cnc23)c1` [Compound 48] cannot be ordered by EC50: > 30 µM for the first, > 30 µM for the second.

`O=C(Nc1cccc2ccccc12)c1cnc2c(-c3cc(Cl)cc(Cl)c3)csc2c1N1CCOCC1` [Compound 49] and `CN(C)c1c(C(=O)Nc2cccc3ccccc23)cnc2c(-c3cc(Cl)cc(Cl)c3)csc12` [Compound 50] cannot be ordered by EC50: > 30 µM for the first, > 30 µM for the second.

`O=C1CCN(c2c(C(=O)N[C@H]3CCOc4ccccc43)cnc3c(-c4cc(Cl)cc(Cl)c4)csc23)CC1` [Compound 52] and `Cc1sc2c(N3CC(F)(F)C3)c(C(=O)N[C@H]3CCCc4ccccc43)cnc2c1-c1cc(Cl)cc(Cl)c1` [Compound 58] cannot be ordered by EC50: > 30 µM for the first, > 30 µM for the second.

`Cc1sc2c(N(C)C)c(C(=O)Nc3cccc4ccccc34)cnc2c1-c1cc(Cl)cc(Cl)c1` [Compound 54] and `Cc1sc2c(N3CC(F)(F)C3)c(C(=O)N[C@H]3CCc4ccccc43)cnc2c1-c1cccc(Cl)c1Cl` [Compound 57] cannot be ordered by EC50: > 30 µM for the first, > 30 µM for the second.
